Data published in PMC7603461, “Synthesis and in vitro characterization of the genotoxic, mutagenic and cell-transforming potential of nitrosylated heme” (Archives of Toxicology, 2020).
Where two headings read alike, the source gives them in different places.

What was measured:
[1] = system: heme oxygenase 1 (HO-1) in Caco-2 cells; test: HO-1 expression as surrogate marker of cellular uptake (SDS-PAGE and Western blotting); type: cell-based, human; conditions: 50 and 100 µM, 24-h incubation, compared to control samples
Procedure: (§1) The cellular uptake of NO-heme and hematin was qualitatively investigated by using the expression of the intracellular heme-degrading protein heme oxygenase 1 (HO-1) as surrogate marker. Its expression was analyzed via SDS-PAGE and Western blotting in NO-heme-treated Caco-2 cells. Beforehand, the cytotoxicity of the heme species as well as solvents was evaluated using a commercial kit measuring cell viability based on the WST-1 reagent obtained from Roche Diagnostics (Mannheim, Germany) and performed according to the manufacturer's instructions. Briefly, 5 × 10^4 cells/well were seeded in 96-well plates (TPP) and incubated for 24 h. Then, the cells were treated with the test substances in triplicate for a further 24 h before they were washed with phosphate buffered saline (PBS) and incubated for 1.5 h with 100 μl/well medium supplemented with 10% (v/v) WST-1 reagent. Finally, absorption was measured at 450 nm (with a reference wavelength at 650 nm). For HO-1 expression analysis, Caco-2 cells (3 × 10^5/3.5 cm plate) were treated for 24 h as mentioned above, with 2% acetone/H2O and 2% acetone/NaOH serving as solvent controls. […] After final washings steps, proteins were detected with enhanced chemoluminescence using an Azure 300 CL imaging system (Azure biosystems, Dublin, USA). […]

[2] = system: Caco-2 cells; test: WST-1 cytotoxicity assay; type: cell-based, human; conditions: 50 µM
Procedure: as §1

[3] = system: Caco-2 cells; test: Single cell electrophoresis assay (comet assay), Caco-2; type: cell-based, human; conditions: for genotoxic effects (tail intensity): Caco-2 cells, 1 h treatment, increasing concentrations of heme species, nitrite control 100 µM
Procedure: (§2) DNA-damaging effects of NO-heme were determined in Caco-2 and BALB/c 3T3 cells using the single cell electrophoresis assay (comet assay). […] The comet assay was performed as previously reported (Briviba et al. [2016]), with the following modifications: 2.15 × 10^4 cells/well were seeded in 6-well plates (Corning, Kennebunk, USA) and cultivated for five days. At day six after seeding, the cells were treated for 1 h with the different test substances diluted in Hank’s Balanced Salt Solution (HBSS; Lonza). Hydrogen peroxide and iron sulfate (both from Sigma-Aldrich) served as positive controls. After treatment, the cells were prepared as previously published (Briviba et al. [2016]) and incubated in a specific lysis buffer (100 mM Na2EDTA, 1% Triton X-100, […] NaCl, 1% lauroyl sarcosine sodium salt, 10 mM tris(hydroxymethyl)aminomethane [TRIS] and 10% dimethyl sulfoxide; all purchased from Merck, Darmstadt, Germany) for 1 h at 4 °C. Then, microscope slides were incubated in electrophoresis buffer (1 mM Na2EDTA, 300 mM NaOH; Merck) for 20 min at room temperature, followed by an electrophoresis run at 25 V and 300 mA for 40 min. Thereafter, the slides were washed three times with TRIS buffer (0.4 M; pH 7.5) and stained using 85 µl of a 4,6-diamidino-2-phenylindole solution (5 µg ml^−1; Merck). For quantification of the results, 100 cells per slide were analyzed using a DM 400 B fluorescence microscope (Leica, Wetzlar, Germany) connected to the Comet Assay II Image Analysis System (Perceptive Instruments, Halstedt, UK).

[4] = system: CHO-K1 cells; type: cell-based, Chinese hamster
Procedure: (§3) The investigation of potential cytotoxic effects induced by NO-heme in CHO-K1 cells was performed using a commercial cell proliferation kit based on the MTT reagent obtained from Roche Diagnostics and performed according to the manufacturer's instructions. Briefly, 3.5 × 10^4 cells/well were seeded in 96-well plates (Greiner Diagnostic, Balingen, Germany). Approximately 24 h later, the cells were treated with different NO-heme and acetone concentrations for another 24 h. Subsequently, cells were incubated with the MTT solution for 4 h, before 100 µl DMSO (Carl Roth) were added and absorbance was measured at a wavelength of 570 nm using a microplate reader (EL600; BioTek Instruments, Winooski, USA). The mitochondrial metabolic activity of NO-heme-treated cells was thereby compared to the vehicle control. The HPRT assay was performed according to OECD test guideline no. 476 (OECD [2016]) without exogenous metabolic activation. Briefly, 5 × 10^5 cells per sample were seeded in a 75 cm^2 cell culture flask (Greiner Bio-One) containing 15 ml of McCoy’s 5A medium. […] After another period of 9 days, colonies resistant to 6-thioguanine were fixed with methanol (Carl Roth), stained with methylene blue (Carl Roth) and counted. For the final evaluation of the test, the absolute number of mutations per one million CHO-K1 cells was calculated.

[5] = exposure to UV light and oxygen (sunlight and air), room temperature
Procedure: For the analysis of stability, NO-heme was stored in 15 ml centrifuge tubes (Greiner Bio-One, Frickenhausen, Germany) under different light and atmospheric conditions. […] The final solution was further diluted in 80% acetone/H2O to a final volume of 12.5 ml and allocated to four centrifuge tubes containing 3 ml each. Two of the NO-heme samples were stored in the dark at room temperature, flushed with nitrogen and additionally sealed with thermoplastic film (Parafilm® M, Sigma-Aldrich). The other samples were incubated at room temperature and exposed to sunlight and air. The NO-heme content of each tube was analyzed by UV–Vis and FTIR spectroscopy after 0, 2, 4 and 24 h of incubation.

[6] = system: Salmonella typhimurium strain TA100
Procedure: (§4) The Ames test was performed according to the pre-incubation method described by Mortelmans and Zeiger ([2000]), albeit with slight modifications. Briefly, the lyophilized Salmonella typhimurium strains TA100 (lot number 5220D, Trinova, Gießen, Germany) and TA1535 (lot number 5209D, Trinova) were cultured overnight in 50 ml nutrient broth no. 2 (Thermo Scientific) at 37 °C. Subsequently, the bacterial cultures were shaken for two hours at 125 rpm and 37 °C until the suspension reached an optical density of 1–1.3 at 600 nm. Then, 100 µl of the suspension were mixed with 500 µl of sodium phosphate buffer (final concentrations: 12 mM NaH2PO4, 88 mM Na2HPO4 [pH 7.4]; all components purchased from Carl Roth) and 50 µl of the test compound. Sodium azide (Sigma-Aldrich) was used as positive control and dissolved in ultrapure water. The bacteria were mixed and incubated with the test compounds for 30 min at 37 °C prior to being plated and further incubated for 48 h at 37 °C. Finally, the number of grown revertant colonies was counted.

[7] = system: Salmonella typhimurium strain TA1535
Procedure: as §4

[8] = system: BALB/c 3T3 cells; test: BALB/c 3T3 cell transformation assay (CTA); conditions: for cell-transforming potential: controls 61.54 µM DHAA
Procedure: The CTA was performed as previously described (Sasaki et al. [2012a]) and began with the seeding of 2 × 10^4 BALB/c 3T3 cells in 100 mm dishes (TPP) filled with 10 ml MEM medium. On day 1, the cells were incubated with the test substances for three days, followed by a medium change on day 4. From now on, the cells were incubated in DMEM/HAM’s F-12 medium supplemented with 2% (v/v) FCS, 100 µg ml^−1 streptomycin, 100 IU ml^−1 penicillin (all components were obtained from Biochrom) and 2 µg ml^−1 bovine pancreas insulin solution (Sigma-Aldrich). On days 7, 10, 14, 17, 21 and 24, the medium was changed and the cells were finally fixed on day 31 using ice-cold methanol. Lastly, the plates were stained with Giemsa solution and the number of type III foci formed was counted using a stereo microscope (SZX2-ILLT; Olympus, Hamburg, Germany).

[9] = system: BALB/c 3T3 cells; test: Colony forming efficiency (CFE) cytotoxicity assay; conditions: for concentration at which cytotoxicity starts: CFE
Procedure: Briefly, 200 BALB/c 3T3 cells were seeded in 60 mm dishes (TPP) filled with 4 ml MEM medium. […] 3-Methylcholanthrene (MCA, Sigma-Aldrich) dissolved in DMSO was used as positive control. On day 4, the medium was removed and 4 ml fresh culture medium were added. On day 9, the cells were washed with saline, fixed with 4 ml ice-cold methanol (Carl Roth) for 10 min and then stained with Giemsa solution (Carl Roth) for 30 min. Finally, the stained dishes were washed with water and air-dried before cell colonies with a diameter of ≥ 2 mm were counted.

[10] = system: BALB/c 3T3 cells; test: Single cell electrophoresis assay (comet assay), BALB/c 3T3; type: cell-based, murine; conditions: 1 h treatment; for increase of the tail intensity (genotoxic effect): heme species up to 100 µM, nitrite control 100 µM
Procedure: as §2

[11] = system: DNA; design: method as in Tamir et al. [1996]; conditions: at least tenfold higher than NO-heme; ref Tamir et al. [1996]; cited from earlier work
[12] = system: CHO-K1-BH4 cells; test: In vitro mammalian cell gene mutation test (HPRT assay); type: cell-based, Chinese hamster; conditions: 4 h treatment, without metabolic activation, 100 µM as well as 200 µM heme species, nitrite control 100 µM
Procedure: as §3

[13] = ref Kodama et al. [1976]; Tsuda and Hasegawa [1990]; Stevanovic et al. [2000]; cited from earlier work
[14] = system: murine cell lines; conditions: ref Kodama et al. [1976], Görsdorf et al. [1990]; cited from earlier work
[15] = system: BALB/c 3T3 cells; conditions: ref Kodama et al. [1976]; Tsuda and Hasegawa [1990]; Stevanovic et al. [2000]; cited from earlier work
[16] = system: V79 Chinese hamster lung fibroblasts; design: method as in Cajelli et al. ([1987]); conditions: ref Cajelli et al. ([1987]); cited from earlier work
[17] = TA100, pre-incubation method, up to 300 µM NO-heme and hematin, 1.54 mM NaN3, 100 µM NaNO2
[18] = TA1535, pre-incubation method, up to 300 µM NO-heme and hematin, 1.54 mM NaN3, 100 µM NaNO2

For nitrosylated heme [NO-heme], the “expression of HO-1” value [1] was “increased expression of HO-1”, the relative cell viability [2] was 43 % of the control and the “concentration needed to induce DNA strand breaks” value [3] was 100 µM. For the same compound, the relative cell viability ([4]; 50 µM) was 87%, the relative cell viability ([4]; 200 µM) was 59% and the “time until absorbance signals in the UV–Vis spectrum are reduced” value [5] was “two”. For the same compound, the “mutagenic effects (revertant colonies)” value [6, 17] was “no mutagenic effects were detected” and the “mutagenic effects (revertant colonies)” value [7, 18] was “no mutagenic effects were detected”.

For C=CC1=C(C)c2cc3[n-]c(cc4[n-]c(cc5nc(cc1n2)C(C)=C5C=C)c(C)c4CCC(=O)O)c(CCC(=O)O)c3C.O.[Fe+2] [hematin], the “amount of type III foci compared to the corresponding solvent control” value ([8]; 150 µM, treatment for three days) was “significant increase”, the “expression of HO-1” value [1] was “increased expression of HO-1” and the cytotoxicity ([9]; up to the maximum concentration of 200 µM) was “no sign of cytotoxicity”. For the same compound, the relative cell viability ([2]; Caco-2 cells, 24 h, WST-1) was 45 % of the control, the “genotoxic effects (tail intensity)” value [3] was “exhibiting genotoxic effects” and the “concentration range with statistically significant increase of tail intensity” value [10] was 10 to 100 µM. The “increase of the tail intensity (genotoxic effect)” value [10] was “dose-dependent increase of the tail intensity with statistically significant effects”, the “mutagenic effects (revertant colonies)” value [6, 17] was “no mutagenic effects were detected” and the “mutagenic effects (revertant colonies)” value [7, 18] was “no mutagenic effects were detected”.

With [N-]=[N+]=[N-].[Na+] [NaN3, Sodium azide] the “mutagenic effects (revertant colonies)” value [6, 17] was “Except for the positive control NaN3, no mutagenic effects were detected” and the “mutagenic effects (revertant colonies)” value [7, 18] was “Except for the positive control NaN3, no mutagenic effects were detected”.

For O=NOO [peroxynitrite], the “concentration needed to induce DNA strand breaks” value [11] is given as 1000 µM.

In the case of O=N[O-].[Na+] [sodium nitrite, Sodium nitrite], the cell-transforming potential ([8]; 100 µM NaNO2) is reported as “no cell-transforming potential”, the cell-transforming potential ([8]; 100 µM NaNO2, listed as nitrite) is reported as “no genotoxic, mutagenic or cell-transforming effects” and the “frequencies of mutations compared to the solvent controls” value [12] is reported as “no genotoxic, mutagenic or cell-transforming effects”. The “concentration at which cytotoxicity starts” value [9] was 6000 µM, the “genotoxic effects (tail intensity)” value [3] was “no genotoxic, mutagenic or cell-transforming effects” and the “concentrations at which mutagenic in the HPRT assay” value [13] was 1000 to 10000 µM. The “induction of DNA single strand breaks” value [14] was “did not induce DNA single strand breaks”, the “increase of the tail intensity (genotoxic effect)” value [10] was “no genotoxic, mutagenic or cell-transforming effects” and the “mutagenic effects (revertant colonies)” value [6] was “no genotoxic, mutagenic or cell-transforming effects”. For the same compound, the “mutagenic effects (revertant colonies)” value [7] was “no genotoxic, mutagenic or cell-transforming effects” and the “concentrations leading to malignant transformation of BALB/c 3T3 cells” value [15] was 1000 to 10000 µM.

In the case of O=C1OC(C(O)CO)C(=O)C1=O (stereo not shown) [DHAA, dehydroascorbic acid], the cell-transforming potential ([8]; 100 µM NaNO2) is reported as “no cell-transforming potential” and the “concentration at which cytotoxicity starts” value [9] is reported as 750 µM.

For O=CCC=O [MDA, malondialdehyde], the “mutagenicity in the HGPRT assay” value [16] is given as “mutagenic potential”.
